Measured values taken from PubChem BioAssay AID1613 (NINDS Approved Drug Screening Program, 2009).

System: GFP-SOD1 mutant aggregation, cell imaging
Assay: inhibitors of mutant SOD1 aggregation, cell-based (AID 1613)

SMILES	EC50 [µM]
C[C@H]1O[C@@H](O[C@H]2[C@@H](O)C[C@H](O[C@H]3[C@@H](O)C[C@H](O[C@H]4CC[C@]5(C)C6CC[C@]7(C)[C@@H](C8=CC(=O)OC8)CC[C@]7(O)C6CC[C@@H]5C4)O[C@@H]3C)O[C@@H]2C)C[C@H](O)[C@@H]1O (some centres undefined)	20
CO[C@H]1[C@H](O)[C@@H](O[C@H]2CC[C@]3(C=O)C4CC[C@]5(C)[C@@H](C6=CC(=O)OC6)CC[C@]5(O)C4CC[C@@H]3C2)O[C@@H](C)[C@@H]1O (some centres undefined)	5
O=C1c2c(O)ccc(O)c2C(=O)c2c(NCCNCCO)ccc(NCCNCCO)c21	5
COc1ccc(C[C@H]2NC[C@H](O)[C@H]2OC(C)=O)cc1	2
CC(=O)O[C@H]1C[C@H](O[C@H]2[C@@H](O)C[C@H](O[C@H]3[C@@H](O)C[C@H](O[C@H]4CC[C@@]5(C)C(CCC6C5C[C@@H](O)[C@]5(C)[C@@H](C7=CC(=O)OC7)CC[C@]65O)C4)O[C@@H]3C)O[C@@H]2C)O[C@H](C)[C@H]1O[C@@H]1O[C@H](CO)[C@@H](O)[C@H](O)[C@H]1O (some centres undefined)	5
C[C@H]1O[C@@H](O[C@H]2[C@@H](O)C[C@H](O[C@H]3[C@@H](O)C[C@H](O[C@H]4CC[C@]5(C)C6C[C@@H](O)[C@]7(C)[C@@H](C8=CC(=O)OC8)CC[C@]7(O)C6CC[C@@H]5C4)O[C@@H]3C)O[C@@H]2C)C[C@H](O)[C@@H]1O (some centres undefined)	20
C[C@]12CCC3C(CC[C@]4(O)C[C@@H](O)CC[C@]34C=O)[C@@]1(O)CCC2C1=CC(=O)OC1 (some centres undefined)	5
CC[C@@]1(O)C(=O)OCc2c1cc1n(c2=O)Cc2cc3ccccc3nc2-1	15
CC(=O)O[C@H]1C(=O)[C@@]2(C)C([C@H](OC(=O)c3ccccc3)[C@]3(O)C[C@H](OC(=O)[C@H](O)[C@@H](NC(=O)c4ccccc4)c4ccccc4)C(C)=C1C3(C)C)[C@]1(OC(C)=O)CO[C@@H]1C[C@@H]2O (some centres undefined)	5
C[C@@H]1C[C@@H]([C@H](O)CC2CC(=O)NC(=O)C2)C(=O)[C@@H](C)C1	2
CO[C@H]1[C@H](O)[C@H](O[C@H]2CC[C@]3(C)C4CC[C@]5(C)C(C6=CC(=O)OC6)CC[C@]5(O)C4CC[C@@H]3C2)O[C@@H](C)[C@@H]1O (some centres undefined)	5
CCN(CC)CCNc1ccc(CO)c2sc3ccccc3c(=O)c12	20
CC[C@H]1CN2CCc3cc(OC)c(OC)cc3C2C[C@@H]1CC1NCCc2cc(OC)c(OC)cc21 (some centres undefined)	5
C[n+]1c2cc(N)ccc2cc2ccc(N)cc21	10
